Assay results as given in patent publication US20030176314A1, “Compounds for the treatment of pain” (priority 2001, published 2003).

Key:
[1] = molecular target: T1, norepinephrine (NE) transporter (Rattus norvegicus, UniProt Q63380); assay: Binding at native norepinephrine transporter (NE uptake); settings: Table 8
T1 construct: evaluated at native, tissue-derived transporters; from tissue
Procedure, shortened: (§1)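 Binding (Ki) at native, tissue-derived rat serotonin and norepinephrine transporters, measured by the Owens (1997) protocol.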

[2] = molecular target: T2, human Y2 receptor (Homo sapiens, UniProt P49146); assay: Binding at human neuropeptide Y Y2 receptor; settings: Table 8; read-out: hY2 Ki
T2 construct: host or cells: 293 cells, line 293-hY2-10
T2 sequence (P49146 1-381): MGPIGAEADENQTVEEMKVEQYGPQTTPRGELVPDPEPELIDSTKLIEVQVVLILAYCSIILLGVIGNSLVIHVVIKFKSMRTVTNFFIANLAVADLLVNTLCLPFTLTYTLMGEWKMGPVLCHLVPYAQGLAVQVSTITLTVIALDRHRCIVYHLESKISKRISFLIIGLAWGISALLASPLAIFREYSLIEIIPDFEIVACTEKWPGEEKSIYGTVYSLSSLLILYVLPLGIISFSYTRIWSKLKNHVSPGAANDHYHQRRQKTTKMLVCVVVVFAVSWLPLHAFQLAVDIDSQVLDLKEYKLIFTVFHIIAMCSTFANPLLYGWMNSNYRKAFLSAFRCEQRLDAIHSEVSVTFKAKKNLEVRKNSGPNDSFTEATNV
Text: (§2) Neuropeptide receptors: Stably transfected cell lines which may be used for binding experiments include, for the Y1 receptor, 293-hY1-5 (deposited Jun. 4, 1996, under ATCC Accession No. CRL-12121); for the Y2 receptor, 293-hY2-10 (deposited Jan. 27, 1994, under ATCC Accession No. CRL-11837); for the Y4 receptor, L-hY4-3 (deposited Jan. 11, 1995, under ATCC Accession No. CRL 11779); and for the Y5 receptor, L-hY5-7 (deposited Nov. 15, 1995, under ATCC Accession No. CRL 11995).
(§3) Binding assays using the NPY receptors may be carried out according to the procedures described in U.S. Pat. No. 5,602,024, the disclosure of which is hereby incorporated by reference in its entirety into this application.
(§4) The binding affinity (Ki) of these compounds were tested according to the protocols described herein at the following receptors; human α1A, α1B, α1D, α2A, α2B, and α2C adrenergic receptors; human Y1, Y2, Y4, and Y5 receptors; and N-Methyl-D-aspartic acid (NMDA) receptor channels. The binding interactions of these compounds were additionally tested at the norepinephrine (NE) transporter (NE uptake) and serotonin (5-hydroxytryptamine (5HT)) transporter (5HT uptake) according to protocols described herein

[3] = molecular target: T3, serotonin (5HT) transporter (Rattus norvegicus, UniProt P31652); assay: Binding at native serotonin transporter (5HT uptake); settings: Table 8
T3 construct: evaluated at native, tissue-derived transporters; from tissue
T3 sequence (P31652 whole entry): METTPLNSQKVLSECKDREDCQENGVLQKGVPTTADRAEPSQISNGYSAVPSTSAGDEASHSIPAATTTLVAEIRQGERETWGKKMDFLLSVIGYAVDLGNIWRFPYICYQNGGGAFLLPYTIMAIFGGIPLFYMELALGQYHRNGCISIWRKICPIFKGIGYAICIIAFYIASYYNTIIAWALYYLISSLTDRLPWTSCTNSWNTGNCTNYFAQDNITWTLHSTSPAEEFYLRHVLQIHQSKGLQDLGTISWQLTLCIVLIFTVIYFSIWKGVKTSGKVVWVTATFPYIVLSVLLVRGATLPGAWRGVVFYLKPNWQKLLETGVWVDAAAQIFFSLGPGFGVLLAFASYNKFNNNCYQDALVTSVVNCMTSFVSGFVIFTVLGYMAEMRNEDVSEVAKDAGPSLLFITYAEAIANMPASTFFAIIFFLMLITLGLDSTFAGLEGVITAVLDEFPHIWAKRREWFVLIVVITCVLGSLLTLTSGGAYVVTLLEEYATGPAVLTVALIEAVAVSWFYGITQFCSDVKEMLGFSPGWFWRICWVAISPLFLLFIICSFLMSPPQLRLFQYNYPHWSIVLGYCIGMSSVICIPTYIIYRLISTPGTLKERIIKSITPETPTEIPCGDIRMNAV
Procedure, shortened: as §1

[4] = molecular target: T4, human Y4 receptor (Homo sapiens, UniProt P50391); assay: Binding at human neuropeptide Y Y4 receptor; settings: Table 8; read-out: hY4 Ki
T4 construct: host or cells: L cells, line L-hY4-3
T4 sequence (P50391 whole entry): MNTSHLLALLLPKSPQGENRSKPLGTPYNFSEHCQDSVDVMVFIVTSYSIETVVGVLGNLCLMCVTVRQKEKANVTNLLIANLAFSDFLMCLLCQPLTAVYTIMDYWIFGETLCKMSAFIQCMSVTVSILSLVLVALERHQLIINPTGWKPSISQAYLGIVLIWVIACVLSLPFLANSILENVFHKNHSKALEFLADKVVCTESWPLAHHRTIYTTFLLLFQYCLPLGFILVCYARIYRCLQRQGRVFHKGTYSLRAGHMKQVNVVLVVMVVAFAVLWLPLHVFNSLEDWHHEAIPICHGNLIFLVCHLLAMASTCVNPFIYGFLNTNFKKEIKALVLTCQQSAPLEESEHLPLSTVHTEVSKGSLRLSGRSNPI
Text: as §2, §3, §4

[5] = molecular target: T5, human Y1 receptor (Homo sapiens, UniProt P25929); assay: Binding at human neuropeptide Y Y1 receptor; settings: Table 8; read-out: hY1 Ki
T5 construct: host or cells: 293 cells, line 293-hY1-5
T5 sequence (P25929 1-384): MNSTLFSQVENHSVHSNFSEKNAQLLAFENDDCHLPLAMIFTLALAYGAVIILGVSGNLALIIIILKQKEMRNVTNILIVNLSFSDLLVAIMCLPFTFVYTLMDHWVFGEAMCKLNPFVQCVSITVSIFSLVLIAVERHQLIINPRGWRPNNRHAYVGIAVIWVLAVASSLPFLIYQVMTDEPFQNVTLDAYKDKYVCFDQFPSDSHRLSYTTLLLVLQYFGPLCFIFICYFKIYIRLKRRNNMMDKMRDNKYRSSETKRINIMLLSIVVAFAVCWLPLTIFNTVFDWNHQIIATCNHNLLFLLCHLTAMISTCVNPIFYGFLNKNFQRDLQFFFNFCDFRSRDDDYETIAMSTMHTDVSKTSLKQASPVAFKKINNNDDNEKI
Text: as §2, §3, §4

[6] = molecular target: T6, human Y5 receptor (Homo sapiens, UniProt Q15761); assay: Binding at human neuropeptide Y Y5 receptor; settings: Table 8; read-out: hY5 Ki
T6 construct: host or cells: L cells, line L-hY5-7
T6 sequence (Q15761 1-445): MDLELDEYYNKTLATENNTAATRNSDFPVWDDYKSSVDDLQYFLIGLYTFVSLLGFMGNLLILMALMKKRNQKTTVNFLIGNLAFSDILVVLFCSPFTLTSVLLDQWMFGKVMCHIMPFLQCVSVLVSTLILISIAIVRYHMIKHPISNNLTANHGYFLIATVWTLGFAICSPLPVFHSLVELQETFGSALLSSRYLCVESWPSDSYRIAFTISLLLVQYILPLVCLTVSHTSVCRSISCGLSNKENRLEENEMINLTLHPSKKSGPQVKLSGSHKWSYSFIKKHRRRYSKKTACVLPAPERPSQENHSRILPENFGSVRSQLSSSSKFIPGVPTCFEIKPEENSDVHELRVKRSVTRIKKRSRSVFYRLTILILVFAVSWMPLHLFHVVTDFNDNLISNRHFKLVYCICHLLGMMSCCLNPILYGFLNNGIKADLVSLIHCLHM
Text: as §2, §3, §4

[7] = molecular target: T7, rat NPFF2 receptor (Rattus norvegicus, UniProt Q9EQD2); assay: Functional assay (agonist potency, intrinsic activity) at cloned rat NPFF2 receptor; assay type: cell-based; settings: Table 7, intrinsic activity
T7 construct: The full-length NPFF2 was amplified from rat spinal cord cDNA; expressed in transfected cells; host or cells: not given
T7 sequence (Q9EQD2 whole entry): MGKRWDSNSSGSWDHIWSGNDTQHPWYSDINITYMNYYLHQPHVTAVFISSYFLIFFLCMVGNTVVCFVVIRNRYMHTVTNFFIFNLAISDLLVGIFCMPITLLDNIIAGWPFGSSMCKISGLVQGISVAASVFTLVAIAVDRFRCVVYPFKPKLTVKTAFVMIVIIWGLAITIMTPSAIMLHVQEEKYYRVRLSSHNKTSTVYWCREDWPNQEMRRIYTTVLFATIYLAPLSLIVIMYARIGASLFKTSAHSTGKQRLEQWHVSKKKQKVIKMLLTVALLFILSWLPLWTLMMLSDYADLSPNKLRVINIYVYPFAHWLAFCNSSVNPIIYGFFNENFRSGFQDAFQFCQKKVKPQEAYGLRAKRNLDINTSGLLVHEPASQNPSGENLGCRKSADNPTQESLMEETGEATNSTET

T1 sequence (Q63380 1-617): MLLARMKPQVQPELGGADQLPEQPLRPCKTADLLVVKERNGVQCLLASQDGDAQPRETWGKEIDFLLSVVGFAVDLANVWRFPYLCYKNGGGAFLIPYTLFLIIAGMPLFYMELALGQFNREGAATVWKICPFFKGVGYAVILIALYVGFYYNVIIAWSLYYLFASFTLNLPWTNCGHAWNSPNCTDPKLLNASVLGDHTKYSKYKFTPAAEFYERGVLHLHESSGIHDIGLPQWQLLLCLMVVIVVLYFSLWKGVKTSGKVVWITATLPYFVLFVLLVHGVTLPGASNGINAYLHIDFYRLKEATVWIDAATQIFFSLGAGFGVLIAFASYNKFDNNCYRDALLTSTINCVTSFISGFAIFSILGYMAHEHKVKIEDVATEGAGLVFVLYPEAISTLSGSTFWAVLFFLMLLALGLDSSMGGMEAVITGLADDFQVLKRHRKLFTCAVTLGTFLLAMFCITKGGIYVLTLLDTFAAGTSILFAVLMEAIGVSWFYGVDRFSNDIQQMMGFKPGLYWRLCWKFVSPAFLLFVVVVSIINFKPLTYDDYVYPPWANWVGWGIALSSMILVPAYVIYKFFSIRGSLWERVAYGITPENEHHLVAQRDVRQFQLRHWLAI

SMILES	Ki [1] [nM]	Ki [2] [nM]	Ki [3] [nM]	Ki [4] [nM]	Ki [5] [nM]	Ki [6] [nM]	rNPFF2 IA [7] [% NPFF]
Cc1nc(NC(=N)N)nc2ccc3ccccc3c12 [Compound 1007A]	1940	> 50000	26	2610	5240	74	66
Cc1cc(NC(=N)N)nc2ccc(Cl)cc12 [Compound 4005A, N-(6-chloro-4-methyl-2-quinolinyl)guanidine]	8290	> 50000	2580	5050	12300	358	61
